From ChEMBL document CHEMBL4725390, “Asymmetrically Substituted Quadruplex-Binding Naphthalene Diimide Showing Potent Activity in Pancreatic Cancer Models” (ACS Med Chem Lett, 2020)
The source made the active and inactive calls. The rule behind the calls is not given here.

Experiments:
MIA PaCa-2 [1] = experiment: Antitumor activity against human MIAPaCa2 cells xenografted in mouse assessed as change in tumor volume at 15 mg/kg, iv administered twice per week for 28 days and measured at day 53 by Caliper method relative to control; type: functional; conditions: time 28 day
MIA PaCa-2 [2] = experiment: Downregulation of TNF signaling pathway related gene expression in human MIAPaCa2 cells at 40 nM after 6 hrs by RNA sequencing analysis; type: functional, cell-based
MIA PaCa-2 [3] = experiment: Antitumor activity against human MIAPaCa2 cells xenografted in mouse assessed as change in tumor volume at 1 mg/kg, iv administered twice per week for 28 days and measured at day 53 by Caliper method relative to control; type: functional; conditions: time 28 day
Mus musculus [4] = experiment: Effect on hTERT expression in mouse xenografted with human MIAPaCa2 cells at 1 mg/kg, iv administered once per week for 28 days and measured on day 28 by Western blot analysis; type: functional, organism-based; conditions: time 28.0 day
Mus musculus [5] = experiment: Effect on hTERT expression in mouse xenografted with human MIAPaCa2 cells at 1 mg/kg, iv administered twice per week for 28 days and measured on day 28 by Western blot analysis; type: functional, organism-based; conditions: time 28.0 day
CAPAN-1 [6] = experiment: Potency index, ratio of 2,7-bis(3-morpholinopropyl)-4-((2-(pyrrolidin-1-yl)ethyl)amino)benzo[lmn][3,8]phenanthroline-1,3,6,8(2H,7H)-tetraone IC50 to test compound IC50 for human Capan1 cells measured after 96 hrs by SRB assay; type: functional
[7] = AUC (infinity) in mouse xenografted with human MIAPaCa2 cells at 0.96 mg/kg, iv administered as single dose; type: ADME, organism-based; parameters: time infinity, route intravenous, dose 0.96 mg/kg; conditions: in vivo
[8] = Downregulation of WNT5B mRNA expression in human MIAPaCa2 cells at 40 nM after 24 hrs by RNA sequencing analysis relative to control; type: functional, MIA PaCa-2
[9] = Downregulation of AXIN1 mRNA expression in human MIAPaCa2 cells at 40 nM after 24 hrs by RNA sequencing analysis relative to control; type: functional, MIA PaCa-2
PANC-1 [10] = experiment: Antiproliferative activity against human PANC1 cells assessed as growth inhibition after 96 hrs by SRB assay; type: functional
MIA PaCa-2 [11] = experiment: Antiproliferative activity against human MIAPaCa2 cells assessed as growth inhibition after 96 hrs by SRB assay; type: functional
[12] = Downregulation of Bcl2 mRNA expression in human MIAPaCa2 cells at 40 nM after 6 hrs by RNA sequencing analysis relative to control; type: functional, MIA PaCa-2
[13] = Toxicity in mouse xenografted with human MIAPaCa2 cells assessed as effect on cardiac clinical signs at 1 mg/kg, iv administered once per week for 28 days; type: organism-based; conditions: in vivo, 672 h, time 28 day
[14] = Toxicity in mouse xenografted with human MIAPaCa2 cells assessed as effect on neuronal clinical signs at 1 mg/kg, iv administered twice per week for 28 days; type: organism-based; conditions: in vivo, 672 h, time 28 day
[15] = Downregulation of APC2 mRNA expression in human MIAPaCa2 cells at 40 nM after 6 hrs by RNA sequencing analysis relative to control; type: functional, MIA PaCa-2
CAPAN-1 [16] = experiment: Antiproliferative activity against human Capan1 cells assessed as growth inhibition after 96 hrs by SRB assay; type: functional
MIA PaCa-2 [17] = experiment: Downregulation of axon guidance related gene expression in human MIAPaCa2 cells at 40 nM after 24 hrs by RNA sequencing analysis; type: functional, cell-based
[18] = Downregulation of DVL1 mRNA expression in human MIAPaCa2 cells at 40 nM after 6 hrs by RNA sequencing analysis relative to control; type: functional, MIA PaCa-2
MIA PaCa-2 [19] = experiment: Antitumor activity against human MIAPaCa2 cells xenografted in mouse assessed as change in tumor volume at 1 mg/kg, iv administered once per week for 28 days and measured at day 28 by Caliper method relative to control; type: functional; conditions: time 28 day
MIA PaCa-2 [20] = experiment: Antitumor activity against human MIAPaCa2 cells xenografted in mouse assessed as mean tumor volume at 1 mg/kg, iv administered twice per week for 28 days and measured at day 53 by Caliper method (reference value: 1.60 +/- 0.44 cm3); type: functional; conditions: time 28 day
MIA PaCa-2 [21] = experiment: Downregulation of Rap1 signaling pathway related gene expression in human MIAPaCa2 cells at 40 nM after 24 hrs by RNA sequencing analysis; type: functional, cell-based
[22] = Downregulation of hTERT mRNA expression in human MIAPaCa2 cells at 40 nM after 6 hrs by RNA sequencing analysis relative to control; type: functional, MIA PaCa-2
MIA PaCa-2 [23] = experiment: Antitumor activity against human MIAPaCa2 cells xenografted in mouse assessed as change in tumor volume at 1 mg/kg, iv administered once per week for 28 days and measured at day 53 by Caliper method relative to control; type: functional; conditions: time 28 day
[24] = Half life in mouse xenografted with human MIAPaCa2 cells at 0.96 mg/kg, iv administered as single dose; type: ADME, organism-based; conditions: in vivo
MIA PaCa-2 [25] = experiment: Antitumor activity against human MIAPaCa2 cells xenografted in mouse assessed as mean tumor volume at 1 mg/kg, iv administered once per week for 28 days and measured at day 53 by Caliper method (reference value: 1.60 +/- 0.44 cm3); type: functional; conditions: time 28 day
MIA PaCa-2 [26] = experiment: Potency index, ratio of 2,7-bis(3-morpholinopropyl)-4-((2-(pyrrolidin-1-yl)ethyl)amino)benzo[lmn][3,8]phenanthroline-1,3,6,8(2H,7H)-tetraone IC50 to test compound IC50 for human MIAPaCa2 cells measured after 96 hrs by SRB assay; type: functional
MIA PaCa-2 [27] = experiment: Downregulation of Rap1 signaling pathway related gene expression in human MIAPaCa2 cells at 40 nM after 6 hrs by RNA sequencing analysis; type: functional, cell-based
[28] = Cmax in mouse xenografted with human MIAPaCa2 cells at 0.96 mg/kg, iv administered as single dose; type: ADME, organism-based; parameters: route intravenous, dose 0.96 mg/kg; conditions: in vivo
[29] = Half life in rat at 1 mg/kg, iv administered as single dose; type: ADME, organism-based; conditions: in vivo
[30] = Toxicity in mouse xenografted with human MIAPaCa2 cells assessed as effect on cardiac clinical signs at 1 mg/kg, iv administered twice per week for 28 days; type: organism-based; conditions: in vivo, 672 h, time 28 day
[31] = Downregulation of MAPK11 mRNA expression in human MIAPaCa2 cells at 40 nM after 6 hrs by RNA sequencing analysis relative to control; type: functional, MIA PaCa-2
MIA PaCa-2 [32] = experiment: Downregulation of DNA replication associated gene expression in human MIAPaCa2 cells at 40 nM after 24 hrs by RNA sequencing analysis; type: functional, cell-based
[33] = Downregulation of Bcl2 mRNA expression in human MIAPaCa2 cells at 40 nM after 24 hrs by RNA sequencing analysis relative to control; type: functional, MIA PaCa-2
[34] = Downregulation of hTERT mRNA expression in human MIAPaCa2 cells at 40 nM after 24 hrs by RNA sequencing analysis relative to control; type: functional, MIA PaCa-2
[35] = Downregulation of APC2 mRNA expression in human MIAPaCa2 cells at 40 nM after 24 hrs by RNA sequencing analysis relative to control; type: functional, MIA PaCa-2
PANC-1 [36] = experiment: Potency index, ratio of 2,7-bis(3-morpholinopropyl)-4-((2-(pyrrolidin-1-yl)ethyl)amino)benzo[lmn][3,8]phenanthroline-1,3,6,8(2H,7H)-tetraone IC50 to test compound IC50 for human PANC1 cells measured after 96 hrs by SRB assay; type: functional

Compound: O=C1c2cc(-c3ccc(CN4CCCC4)cc3)c3c4c(cc(NCCN5CCCC5)c(c24)C(=O)N1CCCN1CCOCC1)C(=O)N(CCCN1CCOCC1)C3=O [QN-302]
- Activity (MIA PaCa-2 [1]): -78.1%
- inhibition (MIA PaCa-2 [2]): Active
- Activity (MIA PaCa-2 [3]): -90.6%
- Activity (Mus musculus [4]): inactive
- Activity (Mus musculus [5]): inactive
- Ratio IC50 (CAPAN-1 [6]): 5
- AUC(0-inf) [7]: 8270 ng·h/mL
- log2FC [8]: 0.57
- log2FC [9]: 0.39
- GI50 (PANC-1 [10]): 1.4 nM
- GI50 (MIA PaCa-2 [11]): 1.3 nM
- log2FC [12]: 0.58
- Activity [13]: Non-Toxic
- Activity [14]: Non-Toxic
- log2FC [15]: 1.88
- GI50 (CAPAN-1 [16]): 5.9 nM
- inhibition (MIA PaCa-2 [17]): Active
- log2FC [18]: 1.48
- Activity (MIA PaCa-2 [19]): -82.2%
- Activity (MIA PaCa-2 [20]): 0.15 cm3
- inhibition (MIA PaCa-2 [21]): Active
- log2FC [22]: 2.29
- Activity (MIA PaCa-2 [23]): -89.83%
- half-life [24]: 37 h
- Activity (MIA PaCa-2 [25]): 0.17 cm3
- Ratio IC50 (MIA PaCa-2 [26]): 10
- inhibition (MIA PaCa-2 [27]): Active
- Cmax [28]: 4180 ng/mL
- half-life [29]: 36 h
- Activity [30]: Non-Toxic
- log2FC [31]: 0.71
- inhibition (MIA PaCa-2 [32]): Active
- log2FC [33]: 1.75
- log2FC [34]: 1.02
- log2FC [35]: 1.06
- Ratio IC50 (PANC-1 [36]): 10
